Source: patent publication US9173938B2, “Combination of a purine-based CDK inhibitor with a tyrosine kinase inhibitor and use thereof in the treatment of proliferative disorders” (Cyclacel Limited, priority 2007, dated 2015)

Columns and labels:
[1] = tested on: phospho-ERK; assay: Western blot of H358 cell lysates; format: cell-based; conditions: H358 cells, 72 h
[2] = tested on: cyclin D1; assay: Western blot of H358 cell lysates; format: cell-based; conditions: H358 cells, 72 h
[3] = tested on: H460 cells; assay: Cell growth (alamar blue); format: cell-based; conditions: Homo sapiens, NCI-H460
[4] = tested on: EGFR; conditions: H358 cells, 72 h, western blot
[5] = tested on: phospho-Tyr1068 EGFR; conditions: H358 cells, 72 h, western blot
[6] = tested on: H358 cells; assay: Cell growth / drug combination analysis (alamar blue, Calcusyn); format: cell-based; conditions: Homo sapiens, NCI-H358
[7] = tested on: A549 cells; assay: Cell growth (alamar blue); format: cell-based; conditions: Homo sapiens
[8] = tested on: cleaved PARP; assay: Western blot for cleaved PARP (apoptosis marker) in H358 cells; format: cell-based; conditions: 72 h, range of concentrations
[9] = tested on: H292 cells; assay: Drug combination analysis (Alamar blue, Calcusyn); conditions: 72 hours
[10] = tested on: H292 xenograft; assay: H292 xenograft model; format: in vivo, nude mice; conditions: seliciclib 50 mg bid, [1] 40 mg bid days 1-5 and 11-15; erlotinib 100 mg qd po, 50 mg from day 11
[11] = tested on: SkBr3 cells; assay: Cell growth / drug combination analysis (alamar blue, Calcusyn); format: cell-based; conditions: for Calcusyn combination value at 50% effective dose: in combination with Lapatinib
[12] = tested on: H358 xenograft; conditions: day 49, erlotinib 100 mg/kg po daily, 28 days; for mean tumour volume: seliciclib 50 mg/kg ip twice daily 5 days on/2 off
[13] = tested on: cyclin D1; assay: Western blot of SkBr3 cell lysates; format: cell-based; conditions: SkBr3 cells, 24 h
[14] = tested on: H358 cells; assay: Flow cytometry of DNA content (propidium iodide); conditions: 1×IC50, 72 h
Description: (B) The DNA content of the cells was analysed by flow cytometry after propidium iodide staining. Sub-G1 cells are those that contain less DNA than normal diploid cells. Results are representative of two independent experiments.
H358 or H1650 cells were seeded in 10 cm plates at approximately 5×10^5 cells/plate and left to settle overnight. […] After 72 h treatment, cells were harvested by trypsinisation, washed twice in PBS and then fixed overnight in 70% (v/v) ethanol at −20° C. Cells were washed twice in PBS containing 1% (w/v) BSA, then incubated with 50 μg/ml propidium iodide and 50 μg/ml ribonuclease A for 20 min at room temperature. Cells were analysed for DNA content by flow cytometry using the CellQuest programme on a Becton Dickinson LSR flow cytometer.

[15] = tested on: HER2; assay: Western blot of SkBr3 cell lysates; format: cell-based; conditions: SkBr3 cells, 24 h
[16] = tested on: MCF7 cells; assay: Cell growth (alamar blue); format: cell-based

SMILES	Calcusyn combination value at 50% effective dose ([9]; in combination with AG1478)	Calcusyn combination value at 50% effective dose ([9]; in combination with Erlotinib)	Calcusyn combination value at 50% effective dose ([9]; in combination with Gefitinib)	Calcusyn combination value at 50% effective dose ([9]; in combination with Lapatinib)	effect on tumour growth [10]	also measured
COc1cc2ncnc(Nc3cccc(Cl)c3)c2cc1OC [AG1478, 4-(3-chloroanilino)-6,7-dimethoxyquinazoline]						ERK phosphorylation [1]: stimulated ERK phosphorylation at low concentrations; cyclin D1 levels [2]: very little effect; IC50 [3]: 10.4 µM; level of the EGFR [4]: decreased the level of the EGFR in a dose-dependent manner; EGFR phosphorylation [5]: dose-dependent decrease; IC50 [6]: 4 µM; IC50 [7]: 6.6 µM; PARP cleavage [8]: no increase in PARP cleavage
CC[C@@H](Nc1nc(NCc2cccnc2)c2ncn(C(C)C)c2n1)C(C)(C)O [[1], (3R)-3-{9-isopropyl-6-[(pyridin-3-ylmethyl)-amino]-9H-purin-2-ylamino}-2-methyl-pentan-2-ol]	0.42	0.71	0.50	0.69	minimal if any effect on tumour growth	
CC[C@H](Nc1nc(NCc2cccnc2)c2ncn(C(C)C)c2n1)C(C)(C)O [[2], (3S)-3-{9-isopropyl-6-[(pyridin-3-ylmethyl)-amino]-9H-purin-2-ylamino}-2-methyl-pentan-2-ol]	0.26	0.62	0.54	0.79		
CC[C@H](Nc1nc(NCc2cccnc2)c2ncn(C(C)C)c2n1)[C@@H](C)O [[3], (2R3S)-3-{9-isopropyl-6-[(pyridine-3-ylmethyl)-amino]-9H-purin-2-ylamino}-pentan-2-ol]	0.31	0.68	0.49	0.76		
CC[C@H](Nc1nc(NCc2cnc(C)cc2C)c2ncn(C(C)C)c2n1)[C@@H](C)O [[4]]	0.36	0.87	0.55	0.59		Calcusyn combination value at 50% effective dose [11]: 0.67
C#Cc1cccc(Nc2ncnc3cc(OCCOC)c(OCCOC)cc23)c1 [erlotinib]					moderately effective	mean tumour volume [12]: 444 mm^3; tumour growth inhibition ([12]; seliciclib 50 mg/kg ip twice daily): 44%
CC[C@H](CO)Nc1nc(NCc2ccccc2)c2ncn(C(C)C)c2n1 [seliciclib, 2-(1-R-hydroxymethylpropylamino)-6-benzylamino-9-isopropylpurine]	0.38	0.68	0.53	0.57	minimal if any effect on tumour growth	ERK phosphorylation [1]: no significant effect; cyclin D1 levels [2]: modest decrease; level of the EGFR [4]: decreased the level of the EGFR in a dose-dependent manner; cyclin D1 levels [13]: significantly decreased cyclin D1 levels in a dose-dependent manner; EGFR phosphorylation [5]: limited effect; G2/M phase cells [14]: characteristic increase in G2/M phase cells; mean tumour volume [12]: 717 mm^3; PARP cleavage [8]: dose-dependent increase in cleaved PARP; HER2 levels [15]: decreased HER2 levels in a dose-dependent manner; IC70 (growth inhibition) [16]: 15.4 µM; IC70 (growth inhibition) [11]: 20.4 µM; Calcusyn combination value at 50% effective dose [11]: 0.72
